Data on three molecules can be found in US20090233307A1, “METHODS FOR DETECTION OF SINGLE STRAND BREAKS IN DNA” (The University of North Carolina at Chapel Hill, priority 2008, published 2009).

Some results are limits rather than exact numbers.

The test system of data set [1] is Chinese hamster ovary (CHO) AA8 cells. Kind of data set: OTX-coupled comet assay. The data set is classed as cell-based. As to conditions: 1 mM MMS 10 minutes. The method, then:
Chinese hamster ovary (CHO) AA8 cells were seeded at a concentration 0.5×10^6 cell/mL into several 10 cm culture dishes with 10 mL of MEM-α media (Gibco) supplemented with 10% fetal bovine serum (heat inactivated; Sigma), 100 μg/mL penicillin, and 100 μg/mL streptomycin. These were allowed to grow for 48 hours at 37° C. and 5% CO2. Culture dishes were about 80-85% confluent at harvest.
Before cells were harvested for use in the comet assay, the lysis solution (2.5 M NaCl, 100 mM Na2-EDTA, 10 mM Trizma, pH 10) was completed with the addition of 10% (v/v) DMSO and 1% (v/v) Triton X-100, mixed thoroughly, and refrigerated at 4° C. A 0.5% solution of low melting point agarose (LMPA) was also prepared and allowed to equilibrate to 37° C. in a water bath. Partially frosted microscope slides, pre-coated several days before with 50 μL of 1% normal melting point agarose (NMPA), were labeled and set aside.
Prior to cell harvest, the media was removed and each dish was washed with 10 mL of 1×PBS. An additional 2 mL of 1×PBS was added to each dish and the cells were harvested using a rubber policeman. Harvested cells were combined into 15 mL centrifuged tubes and gently mixed by pipetting to obtain a homogenous cell sample. The cell count was obtained using a hemacytometer. The volume of cell sample needed to obtain 11,000 cells per slide to be prepared was added to a new 15 mL centrifuge tube and centrifuged for 5 minutes at 1,100 RPM. The supernatant was removed and the cell pellet resuspended in 1×PBS at a volume equal to 10 μL per slide to be prepared (e.g. 5 slides×10 μL per slide=50 μL 1×PBS total).
For each slide to be prepared, 10 μL of the cell sample was added to a 1.5 mL centrifuge tube. The cell layer of the slide was created by first gently mixing 100 μL of the 0.5% LMPA with the 10 μL of cell sample in the tube. This mixture was then added to a pre-coated slide and a coverslip placed onto the slide to create a thin layer of the cell mixture. Slides with cell layers were then refrigerated at 4° C. for 15 minutes to solidify the gel. After this incubation, the initial coverslips were removed and an additional 150 μL of 0.5% LMPA was added to each slide. A fresh coverslip was placed onto each slide to create a thin top layer and the slides were refrigerated for another 15 minutes. After removing the coverslip, completed slides that were receiving MMS treatment were placed in a slide chamber containing warmed MEM-α media with 1 mM MMS for 10 minutes. The slide chamber was kept warm by placing it within an incubator held at 37° C. After the 10 minutes, the slides were washed with 1×PBS for 5 minutes at room temperature and then transferred to slide chambers containing the chilled lysis solution. […]

Data set [2] has as its system AP sites in genomic DNA exposed to heat/acid conditions. In words: OTX optimization for protection of AP sites from alkaline cleavage (alkaline gel electrophoresis). More on the design: species or system chicken. The note with it: OTX 37° C. 1 hour, denaturation 100 mM NaOH (pH 12.8). The method, then: AP sites were produced in stock DT40 DNA through exposure to heat/acid conditions. DT40 DNA was incubated in sodium citrate buffer (10 mM sodium citrate, 10 mM NaH2PO4, 10 mM NaCl pH 5) for 5 minutes at 70° C., followed by rapid chilling on ice to stop the reaction (Nakamura et al., Cancer Res., 58, 222-225 (1998)). Depurinated DNA was collected using Microcon® YM-3 centrifugal filter devices (Amicon Bioseparations). This DNA was then washed several times with HEPES buffer (50 mM, pH 7) supplemented with 1 mM 2,2,6,6-tetramethylpiperidine-N-oxyl (TEMPO). DNA was resuspended in HEPES buffer containing 1 mM TEMPO.
An alkaline gel electrophoresis protocol (AGE) (Drouin et al., in: Technologies for Detection of DNA Damage and Mutations (G. P. Pfeifer, ed.). Plenum Press, New York, N.Y., pp. 37-43 (1996)) with modifications was used to assess SSBs and ALSs in DNA from exposed cells. The 0.7% agarose gel was prepared in gel buffer (50 mM NaCl, 1 mM EDTA, pH 7) and deionized water. After forming, the gel was soaked in mild alkaline running buffer (30 mM NaOH, 1 mM EDTA, pH 12.4) for at least 30 minutes. Equal amounts of DNA (3-5 μg) were incubated for 1 hour at 37° C. in the presence or absence of 30 mM OTX (Aldrich) in 50 mM HEPES buffer. […] Following OTX exposure, the samples were denatured through treatment with an alkaline buffer (100 mM NaOH, 30 mM OTX, 50 mM HEPES, pH 12.8) for 20 minutes at 37° C. Samples then received loading buffer (10 mM NaOH, 95% formamide (Fluka), 0.05% bromophenol blue, 0.05% xylene cyanol) and were loaded onto the agarose gel. The gel was subjected to electrophoresis at a constant voltage (30 V) for 16 hours at 4° C. At the completion of electrophoresis, the gel was placed in neutralization buffer (400 mM Tris, pH 7.5) for 20 minutes at room temperature. […]
With knowledge of optimal AP site cleavage (pH≧12.2) and DNA denaturation (pH≦12.56) conditions, the utility of stabilizing AP sites prior to complete unwinding at high pH was assessed for subsequent gel electrophoresis. […]

For data set [3], the system named is DT40 cells. Kind of data set: Cell death in DT40 cells. Type of data set: cell-based. As to conditions: unpublished data.
Another data set deals with Pol β null cells. In words: SSB repair through NAD(P)H depletion, Pol β null cells. Type of data set: cell-based, chicken. The note with it: Pol β null cells exposed to MMS. The method, then:
(§1) SSB repair capacity was determined by a real-time colorimetric assay that measures intracellular NAD(P)H levels (Tano et al., DNA Repair, 6, 869-875 (2007)). PARP-1 activation during SSB repair leads to NAD^+ consumption, which can be indirectly monitored through NAD(P)H depletion (Nakamura et al., Nucleic Acids Res., 31, e104 (2003)). Briefly, 5×10^3 cells/well were seeded into a 96-well plate. After a 30 minute incubation period, the cells were treated with 1 mM MMS quickly followed by the addition of a dye containing XTT (Sigma) and 1-methoxy PMS (Sigma). For up to 4 hours, the NAD(P)H-dependent conversion of the XTT tetrazolium salt to a yellow colored formazan dye was measured spectrophotometrically. Decreases in intracellular NAD(P)H levels were determined through comparison of values to those of the PBS control. Established methods for detecting SSBs have not been adequately characterized for pH effects on DNA structure and chemistry and also lack a high specificity for SSBs, primarily because of artifactual SSB formation. […] The accumulation of SSBs leads to PARP-1 over-activation and the consumption of NAD+, which is indirectly monitored in living cells through the measurement of intracellular NAD(P)H depletion using tetrazolium salts, such as XTT, during chemical exposure (Tano et al., DNA Repair, 6, 869-875 (2007)). […]

For data set [4], the system named is DT40 cells. In words: SSB repair through NAD(P)H depletion, DT40 cells. Type of data set: cell-based, chicken. The note with it: DT40 cells exposed to MMS. Here is the method:
as §1

On to `NOC1CCCCO1` (stereo not shown) [OTX, O-(tetrahydro-2H-pyran-2-yl)hydroxylamine], for which the “tail moments over the various incubation times with OTX protection” value in data set [1] (300 mM OTX 0-4 hours at 37° C.) was “no significant increase in tail moments”. In addition, the “tail moment with OTX protection vs 1 hour incubation without OTX” value in data set [1] (300 mM OTX, 1 hour incubation) is listed as “significant decrease in tail moment”. Moreover, the “tail moment, one hour incubation with OTX vs zero hour incubation control without OTX” value in data set [1] (300 mM OTX, one hour) is “significant decrease in tail moment”. Further, in data set [2], the “optimum concentration to protect AP sites from alkaline cleavage” value is recorded as 30 mM. Moreover, in data set [2] (electrophoresis pH 12.4), the “OTX concentration with complete protection of AP sites from alkaline cleavage” value is reported as not below 10 mM and the “OTX concentration with little to no protection of AP sites from alkaline cleavage” value is given as less than 1 mM. In the data set on DT40 cells [3], the “concentration that induces cell death” value was 2 mM.

On to `NC(=O)c1cccc(N)c1` [3-aminobenzamide], for which the “protection from MMS-induced NAD(P)H depletion” value with Pol β null cells and with DT40 cells [4] was “mostly protected” each time.

In the case of `CON` [Methoxyamine], the “concentration that induces cell death” value in the data set on DT40 cells [3] lay within 20 to 30 mM.
